Test results reported in patent publication US20120088688A1, “IN VITRO ASSAY FOR IDENTIFICATION OF ALLERGENIC PROTEINS” (BIOVATOR TECHNOLOGIES AB, priority 2005, published 2012).
Counter-ions that a name gives are not always drawn.

System: Mono Mac 6 cells
Experiment: Micro array gene expression profiling (HG_U95Av2 chip) of Mono Mac 6 cells following allergen treatment
Type: cell-based, human
Settings: for Number of up regulated genes: Mono Mac 6 cells
Description: The cell line Mono Mac 6 (AstraZeneca Cell Storage and Retrieval, Alderley Park, UK) was cultivated in RPMI 1640 medium with 10 mM HEPES buffer (Gibco, UK), 2 mM L-glutamine, 9 μg/mL human insulin, 1.0 mM sodium pyruvate, 10% fetal bovine serum, 5.6 μl/mL glucose, 100 U/mL penicillin and 100 μg/ml streptomycin. Fresh medium for cultivation was added or changed frequently (every 2:nd or 3:rd day), maintaining a cell density of viable cells/mL between 0.5×10^6 and 1.0×10^6. The cell line was in suspension/loosely adherent and sub cultures were prepared when needed by scraping. The plates were cultivated in an inclined position at 37° C. and 5% CO2 in a Galaxy R (Lab Rum Klimat Ab, Sweden) incubator
Cells were treated with four different allergens, according to table 2, in duplicate cultures. The test substances were all diluted in double distilled water. The duplicate cultures were treated at different exposure days. All treatments were 6 hours and control cells were left unexposed.
20 individual cultures with 500 000 cells per culture were treated identical for each substance. After 6 h exposure identical treated cells were harvest and pooled into a 50 ml Falcontube, pelleted at 540 g for 5 minutes in 7° C. […] The supernatant was removed and the cells were freeze-dried with liquid nitrogen and thereafter put into −152° C. freezer until further preparation.
Experimental procedures were performed according to Gene Chip®Expression Analysis Technical Manual (rev1, 2001) with minor modifications as described. Total RNA was prepared from frozen cells, according to Qiagen Rneasy Mini kit (Qiagen/WVR, Sweden). 30 μg of total RNA was used for cDNA synthesis and in vitro transcript labeling with biotin was performed according to Enzo BioArray RNA Transcription Labeling Kit (Enzo, U.S.A). cRNA quality was analyzed on a Agilent Bioanalyser 2001 (Agilent Technologies, U.S.A) and the concentration was measured on a Nano Droop (Saveen Werner, Sweden). 15 μg of fragmented cRNA was added to the hybridization-cocktail and hybridized to the HG_U95Av2 chip (Affymetrix, U.S.A) for 16 h at 45° C. The arrays were washed and stained with biotinylated anti streptavidin antibodies according to the EukGE_W2v4 protocol (Affymetrix, U.S.A) in the fluid station (Affymetrix, U.S.A).
Data obtained were analyzed using the MAS 5.0 model base. A detection call was calculated for all probe sets, representing if the transcript of a particular gene was present or absent, all absent genes were excluded from analysis.
To verify outliers and trends in data exploratory analysis was made with principle component analysis (PCA). Statistic analysis was made using student's t-test. It weights the variance in individual groups with the variance in all groups. Student's t-test was used to test for statistical significance compared with control. The p-value obtained describes the probability of statistically finding a false positive probe set. Fold change (fc) represents the quotient between the two compared chip.
The average signal value from all treated groups were compared with control signals.
All probe sets with signal value<50 in all groups were excluded from analysis. […] The remaining probe sets were ranked after fc.

Compound: CC1(C)S[C@@H]2[C@H](NC(=O)Cc3ccccc3)C(=O)N2[C@H]1C(=O)O [penicillin G, Benzylpenicillin sodium salt]
- Number of up regulated genes (cut off fc >2): 4
- Number of up regulated genes (cut off fc >4): 1
- Number of up regulated genes (cut off fc >6): 0
- Number of up regulated genes (cut off fc >10): 0
- vs ctrl fc, GPR15 (gene GPR15): 2.2
- vs ctrl fc, IFITM3 (gene IFITM3): 3.3
- vs ctrl fc, XK (gene XK): 2.6
- vs ctrl fc, c 33.28 unnamed HERV-H protein mRNA (systematic name none, c 33.28 unnamed HERV-H protein mRNA): 9.1
